Measurements from ChEMBL document CHEMBL4680187, “Optimization of EphA2 antagonists based on a lithocholic acid core led to the identification of UniPR505, a new 3α-carbamoyloxy derivative with antiangiogenetic properties” (Eur J Med Chem, 2020).
Active and inactive are the calls of the source. The rule behind the calls is not given here.

Assays:
[1] = test system: HUVEC; assay: Antiangiogenic activity in HUVEC assessed as reduction in number of polygons formation after 16 hrs by matrigel-based microscopic analysis; conditions: Homo sapiens
[2] = target: T1, Ephrin type-A receptor 1 (Homo sapiens, UniProt P21709); assay: Displacement of biotinylated ephrin-A1-Fc from human EphA1 Fc preincubated for 1 hr followed by ephrin-A1-FC addition and measured after 4 hrs by ELISA
T1 sequence (P21709 whole entry): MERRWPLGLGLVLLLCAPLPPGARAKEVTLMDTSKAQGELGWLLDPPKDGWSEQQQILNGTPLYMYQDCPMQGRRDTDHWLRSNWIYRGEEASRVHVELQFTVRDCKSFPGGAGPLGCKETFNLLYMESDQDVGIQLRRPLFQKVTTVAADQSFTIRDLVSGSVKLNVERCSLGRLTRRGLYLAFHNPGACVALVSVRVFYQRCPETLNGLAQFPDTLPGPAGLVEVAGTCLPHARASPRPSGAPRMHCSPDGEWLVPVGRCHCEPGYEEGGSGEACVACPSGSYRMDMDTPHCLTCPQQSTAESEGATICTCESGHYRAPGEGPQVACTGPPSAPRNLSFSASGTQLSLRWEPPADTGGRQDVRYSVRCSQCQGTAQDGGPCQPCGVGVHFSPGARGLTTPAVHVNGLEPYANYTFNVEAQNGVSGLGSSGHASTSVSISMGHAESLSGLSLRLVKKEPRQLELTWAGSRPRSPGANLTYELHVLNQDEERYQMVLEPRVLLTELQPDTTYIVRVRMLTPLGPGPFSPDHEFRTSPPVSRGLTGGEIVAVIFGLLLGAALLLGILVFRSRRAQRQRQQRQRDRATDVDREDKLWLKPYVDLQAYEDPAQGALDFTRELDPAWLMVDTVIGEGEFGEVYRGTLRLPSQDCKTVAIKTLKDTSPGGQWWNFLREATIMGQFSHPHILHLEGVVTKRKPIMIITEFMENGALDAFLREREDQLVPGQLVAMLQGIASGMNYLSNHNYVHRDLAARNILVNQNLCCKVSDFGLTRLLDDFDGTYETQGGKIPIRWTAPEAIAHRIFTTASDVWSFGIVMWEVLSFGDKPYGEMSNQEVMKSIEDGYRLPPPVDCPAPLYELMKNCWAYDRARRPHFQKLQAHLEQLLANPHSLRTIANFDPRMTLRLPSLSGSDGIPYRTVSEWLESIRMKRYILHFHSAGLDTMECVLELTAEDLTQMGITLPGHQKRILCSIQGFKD

[3] = test system: HUVEC; assay: Cytotoxicity against HUVEC cells after 2 to 16 hrs by LDH assay; type: cell-based; conditions: human, time 2-16 hrs
[4] = target: T2, Ephrin type-A receptor 6 (Mus musculus, UniProt Q62413); assay: Displacement of biotinylated ephrin-A1-Fc from mouse EphA6 Fc preincubated for 1 hr followed by ephrin-A1-FC addition and measured after 4 hrs by ELISA
T2 sequence (Q62413 whole entry): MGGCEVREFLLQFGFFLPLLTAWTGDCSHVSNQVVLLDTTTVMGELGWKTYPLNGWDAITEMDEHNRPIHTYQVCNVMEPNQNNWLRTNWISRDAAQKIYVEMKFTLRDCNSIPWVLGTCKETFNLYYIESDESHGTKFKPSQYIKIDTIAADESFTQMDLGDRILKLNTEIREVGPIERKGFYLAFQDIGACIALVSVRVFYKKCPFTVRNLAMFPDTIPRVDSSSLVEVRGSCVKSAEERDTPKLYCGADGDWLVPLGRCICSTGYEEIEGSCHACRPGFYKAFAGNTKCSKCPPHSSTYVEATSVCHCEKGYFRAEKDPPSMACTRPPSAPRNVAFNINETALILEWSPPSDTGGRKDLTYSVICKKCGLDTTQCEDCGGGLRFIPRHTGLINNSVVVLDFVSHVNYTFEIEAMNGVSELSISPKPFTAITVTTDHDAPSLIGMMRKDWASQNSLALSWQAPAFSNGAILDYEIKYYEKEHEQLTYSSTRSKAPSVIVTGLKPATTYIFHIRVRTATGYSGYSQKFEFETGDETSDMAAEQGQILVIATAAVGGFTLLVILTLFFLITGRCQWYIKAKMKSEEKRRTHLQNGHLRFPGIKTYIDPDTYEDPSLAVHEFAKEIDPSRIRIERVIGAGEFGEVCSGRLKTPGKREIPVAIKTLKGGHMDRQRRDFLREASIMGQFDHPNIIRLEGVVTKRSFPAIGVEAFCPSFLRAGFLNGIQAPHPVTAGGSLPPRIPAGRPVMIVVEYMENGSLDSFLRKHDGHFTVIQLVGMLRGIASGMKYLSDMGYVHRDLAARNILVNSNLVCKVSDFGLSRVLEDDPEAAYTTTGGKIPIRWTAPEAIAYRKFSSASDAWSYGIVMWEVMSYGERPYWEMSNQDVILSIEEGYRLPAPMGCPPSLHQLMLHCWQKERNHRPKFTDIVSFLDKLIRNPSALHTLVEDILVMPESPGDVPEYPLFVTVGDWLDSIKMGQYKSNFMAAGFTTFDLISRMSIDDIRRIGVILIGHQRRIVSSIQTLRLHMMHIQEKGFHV

[5] = test system: PC-3; assay: Cytotoxicity against human PC3 cells after 2 hrs by LDH assay; type: cell-based; conditions: pc-3, 2 h
[6] = test system: Chorioallantoic membrane; assay: Antiangiogenic activity in Leghorn chicken fertilized egg chorioallantoic membrane assessed as reduction in unstimulated neovascularization at 10 uM measured after 3 days by CAM assay; type: functional, tissue-based; conditions: Gallus gallus, time 3.0 day

Compound: CCNC(=O)O[C@@H]1CC[C@@]2(C)[C@H](CC[C@@H]3[C@@H]2CC[C@]2(C)[C@@H]([C@H](C)CCC(=O)N[C@H](CC(=O)O)Cc4c[nH]c5ccccc45)CC[C@@H]32)C1
- IC50 [1]: 3 µM
- IC50 [2]: > 30 µM
- Activity [3]: Non-Toxic
- IC50 [4]: 18 µM
- Activity [5]: Non-Toxic
- Activity [6]: inactive
